Measurements from patent US20230150974A1 (Foghorn Therapeutics Inc., priority 2020, published 2023).

Experiments:
HiBit-BRG1 = molecular target: T1, HiBit-BRG1 (Homo sapiens, UniProt P51532); test: HiBit-BRG1 cell-based degradation assay (Nano-Glo HiBiT Lytic Detection); conditions: HeLa cells expressing HiBit-BRG1 and LgBit, 24 h; for DC50: read-out: BRG1 HiBit Degradation IC50; for Dmax: read-out: BRG1 HiBit Degradation Maximum (%)
T1 construct: expressed in transfected cells
Outline: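 Luminescence from reconstituted NanoBiT luciferase after lytic detection served as read-out of remaining HiBit-BRG1 in stable HeLa cells, which also express LgBit. Cells were seeded at 5000 per well and incubated with compound for 24 h. DMSO and a 2 μM known degrader defined the control range.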

HiBiT-BRM = molecular target: T2, HiBiT-BRM (Homo sapiens, UniProt P51531); test: HiBiT-BRM cell-based degradation assay (Nano-Glo HiBiT Lytic Detection); conditions: HeLa cells expressing HiBiT-BRM, 24 h; for DC50: read-out: BRM HiBit Degradation IC50
T2 construct: expressed in transfected cells
Outline: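 HeLa cells stably expressing HiBiT-tagged BRM were treated for 24 h, then lysed with LgBiT-containing Nano-Glo reagent and luminescence read. % degradation scaled between DMSO (high control) and 2 μM reference BRM/BRG1 degrader (low control).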

T1 sequence (P51532 whole entry): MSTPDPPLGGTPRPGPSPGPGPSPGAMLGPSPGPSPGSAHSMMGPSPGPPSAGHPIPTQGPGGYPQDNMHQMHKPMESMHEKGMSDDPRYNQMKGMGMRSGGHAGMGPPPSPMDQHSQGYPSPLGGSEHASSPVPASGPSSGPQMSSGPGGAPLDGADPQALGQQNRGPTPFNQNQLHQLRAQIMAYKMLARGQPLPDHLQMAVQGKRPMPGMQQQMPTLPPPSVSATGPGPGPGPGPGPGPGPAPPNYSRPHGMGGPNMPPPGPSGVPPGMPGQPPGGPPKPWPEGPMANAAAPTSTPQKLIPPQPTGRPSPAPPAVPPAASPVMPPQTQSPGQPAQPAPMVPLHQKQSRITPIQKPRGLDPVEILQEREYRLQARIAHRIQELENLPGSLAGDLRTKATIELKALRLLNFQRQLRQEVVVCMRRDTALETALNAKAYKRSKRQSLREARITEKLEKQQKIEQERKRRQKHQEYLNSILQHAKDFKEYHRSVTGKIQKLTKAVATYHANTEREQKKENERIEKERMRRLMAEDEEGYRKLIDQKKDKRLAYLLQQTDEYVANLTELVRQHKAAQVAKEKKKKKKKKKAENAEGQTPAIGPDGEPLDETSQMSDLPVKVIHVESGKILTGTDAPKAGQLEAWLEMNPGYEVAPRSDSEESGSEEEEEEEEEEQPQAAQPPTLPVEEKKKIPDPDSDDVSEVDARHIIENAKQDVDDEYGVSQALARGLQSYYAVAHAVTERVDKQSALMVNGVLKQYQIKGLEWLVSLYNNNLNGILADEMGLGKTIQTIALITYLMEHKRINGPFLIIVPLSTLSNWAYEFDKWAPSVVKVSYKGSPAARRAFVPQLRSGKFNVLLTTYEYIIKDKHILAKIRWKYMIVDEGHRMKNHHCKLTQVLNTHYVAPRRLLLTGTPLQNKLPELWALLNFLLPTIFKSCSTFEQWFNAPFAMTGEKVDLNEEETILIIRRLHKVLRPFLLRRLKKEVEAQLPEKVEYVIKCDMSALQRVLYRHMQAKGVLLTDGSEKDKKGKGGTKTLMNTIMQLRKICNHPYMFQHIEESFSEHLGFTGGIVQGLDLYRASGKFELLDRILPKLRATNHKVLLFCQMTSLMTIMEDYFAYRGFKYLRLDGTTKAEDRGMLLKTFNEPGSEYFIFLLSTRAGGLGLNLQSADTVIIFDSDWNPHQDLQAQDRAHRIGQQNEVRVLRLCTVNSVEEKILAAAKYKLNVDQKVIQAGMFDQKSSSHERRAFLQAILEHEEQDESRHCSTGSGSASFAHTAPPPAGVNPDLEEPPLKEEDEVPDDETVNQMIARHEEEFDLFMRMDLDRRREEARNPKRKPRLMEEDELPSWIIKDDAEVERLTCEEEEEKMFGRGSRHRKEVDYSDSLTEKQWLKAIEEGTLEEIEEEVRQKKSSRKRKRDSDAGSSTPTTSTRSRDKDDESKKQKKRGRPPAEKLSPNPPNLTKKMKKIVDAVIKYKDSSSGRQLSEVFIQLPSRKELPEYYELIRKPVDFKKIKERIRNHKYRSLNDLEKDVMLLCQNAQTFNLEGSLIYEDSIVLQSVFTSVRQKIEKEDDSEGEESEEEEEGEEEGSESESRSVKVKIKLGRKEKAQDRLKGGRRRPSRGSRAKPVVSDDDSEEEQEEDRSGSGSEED
T2 sequence (P51531 whole entry): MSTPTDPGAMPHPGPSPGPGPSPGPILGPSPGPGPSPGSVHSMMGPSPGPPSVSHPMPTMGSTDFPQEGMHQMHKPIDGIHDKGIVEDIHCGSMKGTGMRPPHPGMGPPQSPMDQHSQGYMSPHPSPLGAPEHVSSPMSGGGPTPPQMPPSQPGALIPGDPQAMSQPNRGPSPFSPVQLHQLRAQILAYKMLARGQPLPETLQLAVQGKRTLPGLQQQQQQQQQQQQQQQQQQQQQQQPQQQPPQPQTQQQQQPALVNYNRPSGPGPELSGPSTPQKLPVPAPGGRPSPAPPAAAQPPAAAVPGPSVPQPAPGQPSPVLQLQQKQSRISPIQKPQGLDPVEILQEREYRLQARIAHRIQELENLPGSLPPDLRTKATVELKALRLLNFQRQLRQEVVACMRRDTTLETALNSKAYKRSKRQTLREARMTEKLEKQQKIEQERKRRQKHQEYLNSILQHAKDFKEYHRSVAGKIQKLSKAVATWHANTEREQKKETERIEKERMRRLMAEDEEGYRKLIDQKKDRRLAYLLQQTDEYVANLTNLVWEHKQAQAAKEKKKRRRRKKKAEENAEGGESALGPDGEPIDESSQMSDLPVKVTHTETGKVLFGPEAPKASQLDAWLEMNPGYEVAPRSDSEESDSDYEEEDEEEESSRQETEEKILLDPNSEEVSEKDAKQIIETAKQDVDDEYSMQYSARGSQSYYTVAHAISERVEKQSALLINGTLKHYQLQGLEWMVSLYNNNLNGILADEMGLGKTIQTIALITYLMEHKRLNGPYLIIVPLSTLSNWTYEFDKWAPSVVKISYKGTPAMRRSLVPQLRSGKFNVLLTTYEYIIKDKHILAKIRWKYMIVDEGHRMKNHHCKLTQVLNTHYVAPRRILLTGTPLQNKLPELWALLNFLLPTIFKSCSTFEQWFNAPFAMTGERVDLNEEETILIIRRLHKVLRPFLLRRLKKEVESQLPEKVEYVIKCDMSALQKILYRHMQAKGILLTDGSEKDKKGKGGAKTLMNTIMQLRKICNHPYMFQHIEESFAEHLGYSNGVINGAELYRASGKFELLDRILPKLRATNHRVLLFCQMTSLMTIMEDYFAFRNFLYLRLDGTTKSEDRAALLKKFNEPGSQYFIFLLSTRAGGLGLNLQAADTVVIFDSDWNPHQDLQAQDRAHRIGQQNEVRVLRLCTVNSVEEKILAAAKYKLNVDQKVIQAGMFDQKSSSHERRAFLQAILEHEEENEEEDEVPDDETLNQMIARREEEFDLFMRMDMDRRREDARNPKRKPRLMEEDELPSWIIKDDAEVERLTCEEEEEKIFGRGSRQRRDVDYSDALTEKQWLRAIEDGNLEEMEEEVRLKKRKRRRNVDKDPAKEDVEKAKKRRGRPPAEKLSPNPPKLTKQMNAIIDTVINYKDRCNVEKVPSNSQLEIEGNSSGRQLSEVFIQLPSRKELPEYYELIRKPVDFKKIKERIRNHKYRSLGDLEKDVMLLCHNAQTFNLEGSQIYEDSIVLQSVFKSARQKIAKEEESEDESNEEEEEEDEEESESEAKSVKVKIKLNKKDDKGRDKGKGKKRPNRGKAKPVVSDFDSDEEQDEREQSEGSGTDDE

| Compound | DC50 (HiBit-BRG1) | BRM HiBit Degradation Maximum (%) (HiBiT-BRM) | DC50 (HiBiT-BRM) | Dmax (HiBit-BRG1) |
| --- | --- | --- | --- | --- |
| Nc1nnc(-c2ccccc2O)cc1N1CCN(C(=O)C2CC2CNC(=O)COc2cccc3c2C(=O)N(C2CCC(=O)NC2=O)C3=O)CC1 (stereo not shown) [Compound 77, N-[(2-[4-[3-amino-6-(2-hydroxyphenyl)pyridazin-4-yl]piperazine-1-carbonyl]cyclopropyl)methyl]-2-[[2-(2,6-dioxopiperidin-3-yl)-1,3-dioxoisoindol-4-yl]oxy]acetamide] | > 1000 nM | C (“C” indicates maximum degradation <50%) | > 1000 nM |  |
| Nc1nnc(-c2ccccc2O)cc1N1CCN(C(=O)C2CC2CNC(=O)COc2ccc3c(c2)C(=O)N(C2CCC(=O)NC2=O)C3=O)CC1 (stereo not shown) [Compound 78, N-[(2-[4-[3-amino-6-(2-hydroxyphenyl)pyridazin-4-yl]piperazine-1-carbonyl]cyclopropyl)methyl]-2-[[2-(2,6-dioxopiperidin-3-yl)-1,3-dioxoisoindol-5-yl]oxy]acetamide] | > 1000 nM | C (“C” indicates maximum degradation <50%) | > 1000 nM |  |
| Nc1nnc(-c2ccccc2O)cc1N1CCN(CC(=O)NCCS(=O)(=O)CCNc2cccc3c2C(=O)N(C2CCC(=O)NC2=O)C3=O)CC1 (stereo not shown) [Compound 79, 2-[4-[3-amino-6-(2-hydroxyphenyl)pyridazin-4-yl]piperazin-1-yl]-N-[2-(2-[[2-(2,6-dioxopiperidin-3-yl)-1,3-dioxoisoindol-4-yl]amino]ethanesulfonyl)ethyl]acetamide] | > 1000 nM | C (“C” indicates maximum degradation <50%) | > 1000 nM | < 50% |
| Nc1nnc(-c2ccccc2O)cc1N1CCN(CC(=O)NCCCCS(=O)(=O)CCCNc2cccc3c2C(=O)N(C2CCC(=O)NC2=O)C3=O)CC1 (stereo not shown) [Compound 80, 2-[4-[3-amino-6-(2-hydroxyphenyl)pyridazin-4-yl]piperazin-1-yl]-N-[4-(3-[[2-(2,6-dioxopiperidin-3-yl)-1,3-dioxoisoindol-4-yl]amino]propanesulfonyl)butyl]acetamide] | > 1000 nM | C (“C” indicates maximum degradation <50%) | > 1000 nM | < 50% |
| Nc1nnc(-c2ccccc2O)cc1N1CCN(CC(=O)N2CC(COc3ccc4c(c3)C(=O)N(C3CCC(=O)NC3=O)C4=O)C2)CC1 (stereo not shown) [Compound 81, 5-((1-(2-(4-(3-amino-6-(2-hydroxyphenyl)pyridazin-4-yl)piperazin-1-yl)acetyl)azetidin-3-yl)methoxy)-2-(2,6-dioxopiperidin-3-yl)isoindoline-1,3-dione] | > 1000 nM | C (“C” indicates maximum degradation <50%) | > 1000 nM | < 50% |
| Nc1nnc(-c2ccccc2O)cc1N1CCN(CC(=O)NC2CCN(CCOc3ccc4c(c3)C(=O)N(C3CCC(=O)NC3=O)C4=O)CC2)CC1 (stereo not shown) [Compound 82, 2-[4-[3-amino-6-(2-hydroxyphenyl)pyridazin-4-yl]piperazin-1-yl]-N-[1-(2-[[2-(2,6-dioxopiperidin-3-yl)-1,3-dioxoisoindol-5-yl]oxy]ethyl)piperidin-4-yl]acetamide] | > 1000 nM | C (“C” indicates maximum degradation <50%) | > 1000 nM | < 50% |
| Nc1nnc(-c2ccccc2O)cc1N1CCN(CC(=O)NCCCCCCCCNc2ccc3c(c2)C(=O)N(C2CCC(=O)NC2=O)C3=O)CC1 (stereo not shown) [Compound 83, 2-[4-[3-amino-6-(2-hydroxyphenyl)pyridazin-4-yl]piperazin-1-yl]-N-(8-[[2-(2,6-dioxopiperidin-3-yl)-1,3-dioxoisoindol-5-yl]amino]octyl)acetamide] | > 1000 nM | B (“B” indicates maximum degradation ≥50%) | > 100 nM | < 50% |
| Nc1nnc(-c2ccccc2O)cc1N1CCN(CCNC(=O)CCCOc2cccc3c2C(=O)N(C2CCC(=O)NC2=O)C3=O)CC1 (stereo not shown) [Compound 84, N-(2-(4-(3-amino-6-(2-hydroxyphenyl)pyridazin-4-yl)piperazin-1-yl)ethyl)-4-((2-(2,6-dioxopiperidin-3-yl)-1,3-dioxoisoindolin-4-yl)oxy)butanamide] | > 1000 nM | C (“C” indicates maximum degradation <50%) | > 1000 nM | < 50% |
| Cc1ncsc1-c1ccc(CNC(=O)[C@@H]2C[C@@H](O)CN2C(=O)[C@@H](NC(=O)COCCOCCOCCNC(=O)CN2CCN(c3cc(-c4ccccc4O)nnc3N)CC2)C(C)(C)C)cc1 [Compound 86, (2S,4R)-1-[(2S)-2-[2-(2-[2-[2-(2-[4-[3-amino-6-(2-hydroxyphenyl)pyridazin-4-yl]piperazin-1-yl]acetamido)ethoxy]ethoxy]ethoxy)acetamido]-3,3-dimethylbutanoyl]-4-hydroxy-N-[[4-(4-methyl-1,3-thiazol-5-yl)phenyl]methyl]pyrrolidine-2-carboxamide] | > 1000 nM | C (“C” indicates maximum degradation <50%) | > 1000 nM | < 50% |
| Nc1nnc(-c2ccccc2O)cc1N1CCN(CC(=O)NCCCCCNc2ccc3c(c2)C(=O)N(C2CCC(=O)NC2=O)C3=O)CC1 (stereo not shown) [Compound 87, 2-[4-[3-amino-6-(2-hydroxyphenyl)pyridazin-4-yl]piperazin-1-yl]-N-(5-[[2-(2,6-dioxopiperidin-3-yl)-1,3-dioxo-2,3-dihydro-1H-isoindol-5-yl]amino]pentyl)acetamide; formic acid] | > 1000 nM | B (“B” indicates maximum degradation ≥50%) | > 1000 nM | > 50% |
| Nc1nnc(-c2ccccc2O)cc1N1CCN(CCNC(=O)CCCCCCCCCCNc2cccc3c2C(=O)N(C2CCC(=O)NC2=O)C3=O)CC1 (stereo not shown) [Compound 88, N-(2-[4-[3-amino-6-(2-hydroxyphenyl)pyridazin-4-yl]piperazin-1-yl]ethyl)-11-[[2-(2,6-dioxopiperidin-3-yl)-1,3-dioxoisoindol-4-yl]amino]undecanamide] | > 1000 nM | C (“C” indicates maximum degradation <50%) | > 1000 nM | < 50% |
| Nc1nnc(-c2ccccc2O)cc1N1CCN(CCNC(=O)CCCCOc2cccc3c2C(=O)N(C2CCC(=O)NC2=O)C3=O)CC1 (stereo not shown) [Compound 89, N-(2-[4-[3-amino-6-(2-hydroxyphenyl)pyridazin-4-yl]piperazin-1-yl]ethyl)-5-[[2-(2,6-dioxopiperidin-3-yl)-1,3-dioxoisoindol-4-yl]oxy]pentanamide] | > 1000 nM | C (“C” indicates maximum degradation <50%) | > 1000 nM | < 50% |
| Nc1nnc(-c2ccccc2O)cc1N1CCN(CCNC(=O)CCCCCCCOc2cccc3c2C(=O)N(C2CCC(=O)NC2=O)C3=O)CC1 (stereo not shown) [Compound 90, N-(2-[4-[3-amino-6-(2-hydroxyphenyl)pyridazin-4-yl]piperazin-1-yl]ethyl)-8-[[2-(2,6-dioxopiperidin-3-yl)-1,3-dioxo-2,3-dihydro-1H-isoindol-4-yl]oxy]octanamide] | > 1000 nM | C (“C” indicates maximum degradation <50%) | > 1000 nM | < 50% |
| Nc1nnc(-c2ccccc2O)cc1N1CCN(CCNC(=O)CCOCCOCCNc2ccc3c(c2)C(=O)N(C2CCC(=O)NC2=O)C3=O)CC1 (stereo not shown) [Compound 91, N-(2-[4-[3-amino-6-(2-hydroxyphenyl)pyridazin-4-yl]piperazin-1-yl]ethyl)-3-[2-(2-[[2-(2,6-dioxopiperidin-3-yl)-1,3-dioxo-2,3-dihydro-1H-isoindol-5-yl]amino]ethoxy)ethoxy]propanamide] | > 1000 nM | C (“C” indicates maximum degradation <50%) | > 1000 nM | < 50% |
| Nc1nnc(-c2ccccc2O)cc1N1CCN(CCNC(=O)CCCCCCCCNc2ccc3c(c2)C(=O)N(C2CCC(=O)NC2=O)C3=O)CC1 (stereo not shown) [Compound 92] | > 1000 nM | C (“C” indicates maximum degradation <50%) | > 1000 nM | < 50% |
| Nc1nnc(-c2ccccc2O)cc1N1CCN(CCNC(=O)CCOCCOCCNc2cccc3c2C(=O)N(C2CCC(=O)NC2=O)C3=O)CC1 (stereo not shown) [Compound 93] | > 1000 nM | C (“C” indicates maximum degradation <50%) | > 1000 nM | < 50% |
| Cc1ncsc1-c1ccc(CNC(=O)[C@@H]2C[C@@H](O)CN2C(=O)[C@@H](NC(=O)CCCCCCCNC(=O)CN2CCN(c3cc(-c4ccccc4O)nnc3N)CC2)C(C)(C)C)cc1 [Compound 94, (2S,4R)-1-((S)-2-(8-(2-(4-(3-amino-6-(2-hydroxyphenyl)pyridazin-4-yl)piperazin-1-yl)acetamido)octanamido)-3,3-dimethylbutanoyl)-4-hydroxy-N-(4-(4-methylthiazol-5-yl)benzyl)pyrrolidine-2-carboxamide] | > 1000 nM | A (“A” indicates maximum degradation ≥75%) | > 1000 nM | < 50% |
| Nc1nnc(-c2ccccc2O)cc1N1CCN(CC(=O)NCCCCCCCCNc2cccc3c2C(=O)N(C2CCC(=O)NC2=O)C3=O)CC1 (stereo not shown) [Compound 95, 2-(4-(3-amino-6-(2-hydroxyphenyl)pyridazin-4-yl)piperazin-1-yl)-N-(8-((2-(2,6-dioxopiperidin-3-yl)-1,3-dioxoisoindolin-4-yl)amino)octyl)acetamide] | > 1000 nM | C (“C” indicates maximum degradation <50%) | > 1000 nM | < 50% |
